Where a SMILES comes first, the peptide text is derived from it. [ ]: non-standard residue; d: D form.
Legend:
[1] = test system: clinical strains of Escherichia coli; test: MIC, clinical strains of E. coli; type: cell-based; design: unit: μg/ml; details: microdilution, Muller Hinton broth-cation adjusted, 0.02% BSA, 0.2% acetic acid
Procedure, shortened: (§1)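 Broth microdilution in Mueller Hinton broth, inoculum adjusted to 5.0×10^5 cfu/ml, peptide tested at 0.125 to 128 μg/ml and incubated at 37° C. for 20 to 24 hours. MIC was the lowest concentration with no visible growth. Yeasts were tested in potato dextrose broth.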

[2] = test system: clinical strains of Klebsiella pneumoniae; test: MIC, clinical strains of K. pneumoniae; type: cell-based; design: unit: μg/ml; details: microdilution, Muller Hinton broth-cation adjusted, 0.02% BSA, 0.2% acetic acid
Procedure, shortened: as §1

[3] = test system: clinical strains of Pseudomonas aeruginosa; test: MIC, clinical strains of P. aeruginosa; type: cell-based; design: unit: μg/ml; details: microdilution, Muller Hinton broth-cation adjusted, 0.02% BSA, 0.2% acetic acid
Procedure, shortened: as §1

[4] = test system: clinical strains of Serratia marcescens; test: MIC, clinical strains of Serratia marcescens; type: cell-based; design: unit: µg/mL; details: microdilution, Muller Hinton broth-cation adjusted, 0.02% BSA, 0.2% acetic acid
Procedure, shortened: as §1

[5] = test system: clinical strains of Proteus mirabilis; test: MIC, clinical strains of Proteus mirabilis; type: cell-based; design: unit: µg/mL; details: microdilution, Muller Hinton broth-cation adjusted, 0.02% BSA, 0.2% acetic acid
Procedure, shortened: as §1

[6] = test system: clinical strains of Enterobacter cloacae; test: MIC, clinical strains of Enterobacter cloacae; type: cell-based; design: unit: μg/ml; details: microdilution, Muller Hinton broth-cation adjusted, 0.02% BSA, 0.2% acetic acid
Procedure, shortened: as §1

[7] = test system: clinical strains of Staphylococcus aureus; test: MIC, clinical strains of S. aureus; type: cell-based; design: unit: μg/ml; details: microdilution, Muller Hinton broth-cation adjusted, 0.02% BSA, 0.2% acetic acid
Procedure, shortened: as §1

[8] = test system: clinical strains of Streptococcus pneumoniae; test: MIC, clinical strains of Streptococcus pneumoniae; type: cell-based; design: unit: µg/mL; details: microdilution, Muller Hinton broth-cation adjusted, 0.02% BSA, 0.2% acetic acid
Procedure, shortened: as §1

[9] = test system: clinical strains of Acinetobacter baumannii; test: MIC, clinical strains of Acinetobacter baumannii; type: cell-based; details: microdilution, Muller Hinton broth-cation adjusted, 0.02% BSA, 0.2% acetic acid
Procedure, shortened: as §1

[10] = test system: clinical strains of Acinetobacter johnsonii; type: cell-based; details: Acinetobacter johnsonii clinical strain 1; microdilution, Muller Hinton broth-cation adjusted, 0.02% BSA, 0.2% acetic acid
Method: Minimum inhibition concentrations (MICs) were determined against Escherichia coli (ATCC 25922), Staphylococcus aureus (ATCC 25923), Klebsiella pneumoniae (ATCC 10031) and Pseudomonas aeruginosa (ATCC 27853). Also clinical strains of E. coli, K. pneumoniae, E. cloacae, P. aeruginosa, Serratia marcescens, Proteus mirabilis, S. pneumoniae, Acinetobacter baumannii, A. johnsonii and S. aureus were used for MICs assays. Additionally, clinical strains of yeast including Candida albicans, C. glabrata, C. parapsilosis and C. quillermondiae were used. The susceptibility of these microorganisms to Chain peptides were determined using micro broth dilution assay. Colonies of the respective microorganism from Muller Hinton (MH) agar plates incubated overnight were suspended in MH broth media and final concentration of microorganism was adjusted to 5.0×10^5 cfu/ml. An aliquot of 10 μl of each Chain peptide, or gentamicin, tetracycline as reference antibiotics were added in differing concentrations along with 90 μl of bacterial suspension to 96 well polypropylene plates and incubated at 37° C. for 20 to 24 hours. Concentrations of Chain peptides and reference antibiotics ranged from 0.125 to 128 μg/ml and the MICs were recorded as the lowest concentration with no visual growth of bacteria. Similarly, antifungal MICs were tested in Potato dextrose broth.
Clinical strains of yeasts including Candida albicans, C. glabrata, C. parapsilosis and C. quillermondiae were also tested with the 12 Chain peptides. The minimum inhibitory concentration (MICs) varied between these peptides and are presented in Tables 4a, 4b, 4c and 5a, 5b, 5c. Peptides Chain 105, 201 and 308 are broad spectrum antimicrobials with MICs between 0.5-32 μg/ml against all the bacteria and yeasts tested, except Serratia marcescens and Proteus mirabilis, against which the MICs were between 64-128 μg/ml. Peptide Chain 306 has narrow spectrum activity against E.coli at 1 μg/ml and for the rest of the bacterial strains at >32 μg/ml (FIG. 10).

[11] = test system: clinical strains of Candida albicans; test: MIC, clinical yeast strains, Candida albicans; type: cell-based; design: unit: μg/ml
Procedure, shortened: as §1

[12] = test system: clinical strains of C. glabrata; test: MIC, clinical yeast strains, C. glabrata; type: cell-based, Candida glabrata; design: unit: μg/ml
Procedure, shortened: as §1

[13] = test system: clinical strains of C. parapsilosis; test: MIC, clinical yeast strains, C. parapsilosis; type: cell-based, Candida parapsilosis; design: unit: μg/ml
Procedure, shortened: as §1

[14] = test system: clinical strains of C. quillermondiae; test: MIC, clinical yeast strains, C. quillermondiae; type: cell-based; details: C. quillermondiae clinical yeast strain 1
Procedure, shortened: as §1

In the case of `CC(C)C[C@@H](NC(=O)[C@H](N)CCCNC(=N)N)C(=O)N[C@H](CCCCN)C(=O)N[C@H](CCCNC(=N)N)C(=O)N[C@H](Cc1c[nH]c2ccccc12)C(=O)N[C@H](CCCNC(=N)N)C(=O)N[C@H](CC(C)C)C(=O)N[C@H](Cc1ccccc1)C(=O)N[C@H](CCCNC(=N)N)C(=O)N[C@H](CCCCN)C(=O)N[C@H](CCCNC(=N)N)C(=O)O` [Chain306D] (H-[dR][dL][dK][dR][dW][dR][dL][dF][dR][dK][dR]-OH), the Minimum inhibitory concentration ([1]; Escherichia coli clinical strain 1) is reported as 1, the Minimum inhibitory concentration ([1]; Escherichia coli clinical strain 2) is reported as 2 and the Minimum inhibitory concentration ([1]; Escherichia coli clinical strain 3) is reported as 2. It also gave a Minimum inhibitory concentration ([1]; Escherichia coli clinical strain 4) of 2, a Minimum inhibitory concentration ([1]; Escherichia coli clinical strain 5) of 2 and a Minimum inhibitory concentration ([2]; Klebsiella pneumoniae clinical strain 1) of 128. It also gave a Minimum inhibitory concentration ([2]; Klebsiella pneumoniae clinical strain 2) greater than 128, a Minimum inhibitory concentration ([2]; Klebsiella pneumoniae clinical strain 3) greater than 128 and a Minimum inhibitory concentration ([2]; Klebsiella pneumoniae clinical strain 4) of 64. It also gave a Minimum inhibitory concentration ([2]; Klebsiella pneumoniae clinical strain 5) of 64, a Minimum inhibitory concentration ([3]; Pseudomonas aeruginosa clinical strain 1) of 128 and a Minimum inhibitory concentration ([3]; Pseudomonas aeruginosa clinical strain 2) greater than 128. For the same molecule, the Minimum inhibitory concentration ([3]; Pseudomonas aeruginosa clinical strain 3) was 128, the Minimum inhibitory concentration ([3]; Pseudomonas aeruginosa clinical strain 4) was greater than 128 and the Minimum inhibitory concentration ([3]; Pseudomonas aeruginosa clinical strain 5) was 128. The Minimum inhibitory concentration ([4]; Serratia marcescens clinical strain 1) was greater than 128, the Minimum inhibitory concentration ([4]; Serratia marcescens clinical strain 2) was greater than 128 and the Minimum inhibitory concentration ([4]; Serratia marcescens clinical strain 3) was greater than 128. It also gave a Minimum inhibitory concentration ([4]; Serratia marcescens clinical strain 4) greater than 128, a Minimum inhibitory concentration ([4]; Serratia marcescens clinical strain 5) greater than 128 and a Minimum inhibitory concentration ([5]; Proteus mirabilis clinical strain 1) greater than 128. The Minimum inhibitory concentration ([5]; Proteus mirabilis clinical strain 2) was greater than 128, the Minimum inhibitory concentration ([5]; Proteus mirabilis clinical strain 3) was greater than 128 and the Minimum inhibitory concentration ([5]; Proteus mirabilis clinical strain 4) was greater than 128. It also gave a Minimum inhibitory concentration ([5]; Proteus mirabilis clinical strain 5) greater than 128, a Minimum inhibitory concentration ([6]; Enterobacter cloacae clinical strain 1) of 64 and a Minimum inhibitory concentration ([6]; Enterobacter cloacae clinical strain 2) of 64. The Minimum inhibitory concentration ([6]; Enterobacter cloacae clinical strain 3) was 32, the Minimum inhibitory concentration ([6]; Enterobacter cloacae clinical strain 4) was 16 and the Minimum inhibitory concentration ([6]; Enterobacter cloacae clinical strain 5) was 16. It also gave a Minimum inhibitory concentration ([7]; Staphylococcus aureus clinical strain 1) of 16, a Minimum inhibitory concentration ([7]; Staphylococcus aureus clinical strain 2) of 32 and a Minimum inhibitory concentration ([7]; Staphylococcus aureus clinical strain 3) of 32. It also gave a Minimum inhibitory concentration ([7]; Staphylococcus aureus clinical strain 4) of 16, a Minimum inhibitory concentration ([7]; Staphylococcus aureus clinical strain 5) of 8 and a Minimum inhibitory concentration ([8]; Streptococcus pneumoniae clinical strain 1) of 64. The Minimum inhibitory concentration ([8]; Streptococcus pneumoniae clinical strain 2) was 64, the Minimum inhibitory concentration ([8]; Streptococcus pneumoniae clinical strain 3) was 64 and the Minimum inhibitory concentration ([8]; Streptococcus pneumoniae clinical strain 4) was 128. The Minimum inhibitory concentration ([8]; Streptococcus pneumoniae clinical strain 5) was 64, the Minimum inhibitory concentration ([9]; Acinetobacter baumannii clinical strain 1) was 16 and the Minimum inhibitory concentration ([9]; Acinetobacter baumannii clinical strain 2) was 32. The Minimum inhibitory concentration ([9]; Acinetobacter baumannii clinical strain 3) was 16, the Minimum inhibitory concentration ([9]; Acinetobacter baumannii clinical strain 4) was 16 and the Minimum inhibitory concentration ([9]; Acinetobacter baumannii clinical strain 5) was 8. It also gave a Minimum inhibitory concentration [10] of 16, a Minimum inhibitory concentration ([11]; Candida albicans clinical yeast strain 1) of 16 and a Minimum inhibitory concentration ([11]; Candida albicans clinical yeast strain 2) of 8. The Minimum inhibitory concentration ([11]; Candida albicans clinical yeast strain 3) was 8, the Minimum inhibitory concentration ([11]; Candida albicans clinical yeast strain 4) was 16 and the Minimum inhibitory concentration ([11]; Candida albicans clinical yeast strain 5) was 16. The Minimum inhibitory concentration ([12]; C. glabrata clinical yeast strain 1) was 8, the Minimum inhibitory concentration ([12]; C. glabrata clinical yeast strain 2) was 8 and the Minimum inhibitory concentration ([12]; C. glabrata clinical yeast strain 3) was 16. It also gave a Minimum inhibitory concentration ([12]; C. glabrata clinical yeast strain 4) of 32, a Minimum inhibitory concentration ([13]; C. parapsilosis clinical yeast strain 1) of 8 and a Minimum inhibitory concentration ([13]; C. parapsilosis clinical yeast strain 2) of 16. The Minimum inhibitory concentration ([13]; C. parapsilosis clinical yeast strain 3) was 16, the Minimum inhibitory concentration ([13]; C. parapsilosis clinical yeast strain 4) was 4 and the Minimum inhibitory concentration [14] was 4.

Source: US11096985B2, “Antimicrobial peptides, their variants and uses” (priority 2015, dated 2021)
